Results reported in patent publication US20240376081A1, “POLYMORPH AND APPLICATION OF PYRIMIDINE DERIVATIVE AND PHARMACEUTICALLY ACCEPTABLE SALT THEREOF” (SHANGHAI HAIYAN PHARMACEUTICAL TECHNOLOGY CO., LTD., priority 2021, published 2024).
Where two headings read alike, the source gives them in different places. Blank lines part the entries; values can stand above or below the molecule they belong to.

What was measured:
[1] = system: mouse colon cancer MC38(#22)-hpd-L1; assay: In vivo potency assay in colon cancer MC38(#22)-hpd-L1 tumor bearing mice; parameters: species or system C57BL/6 mice; settings: twice a day for 22 days
Experimental: Experimental Protocol: In this test example, tumor bearing mice subcutaneously transplanted with mouse colon cancer MC38(#22)-hpd-L1 was investigated. After administration of Compound X of the present application via the oral administration, the in vivo efficacy of Compound X on colon cancer MC38(#22)-hpd-L1 tumor bearing mice were tested.
Experimental materials: C57BL/6 mice (female); mouse colon cancer MC38(#22)-hpd-L1 cells (Shanghai Jiao Tong University cell bank), cultured in vitro in monolayer, culture conditions were using RPMI-1640 medium containing 10/% fetal bovine serum, 37° C. 5% CO2 incubator. The cells were passaged by conventional digestion treatment with trypsin-EDTA. When the cells were in the exponential growth phase with 80% to 90% saturation, the cells were harvested and counted.
Compound Preparation: The compound was weighed and added to the solvent (40% captisol in acetate buffer, pH 3.8) to prepare a 10 mg/mL sample. 75 μL of Tecentriq solution (60 mg/mL) was taken and added to 8.925 mL of phosphate buffer solution (PBS) to make a 0.5 mg/mL phosphate solution (phosphate buffer).
Experimental Operation: Cells were resuspended in the phosphate buffer at a density of 5×10^6 cells/mL. 0.1 mL of PBS (containing 5×10^5 MC38(#22)-hpd-L1 cells) was subcutaneously inoculated into the right back of each mouse. On the day of inoculation, the mice were randomized according to their body weights into groups of 10 mice each, and dosing was begun twice a day for 22 days. The animals were weighed daily and monitored for health throughout the experimental period. Tumor diameters were measured twice a week using vernier calipers.
Tumor volume V was calculated as V=0.5×a×b^2, with a and b denoting the long and short diameters of the tumor, respectively.
The tumor suppression efficacy of the compound was evaluated by relative tumor proliferation rate T/C (%). Relative tumor proliferation rate T/C (%)=Vt/Vc×100% (Vt: mean tumor volume of the treatment group; Vc: mean tumor volume of the negative control group). Vt and Vc were data taken from the same day.

[2] = In vivo pharmacokinetics in mice (LC/MS/MS plasma concentration); settings: male, ICR, mouse; for clearance: read-out: Clearance CLz
Source text: The LC/MS/MS method was applied to determine the medicament concentration in plasma at different moments after intravenous administration and oral gavage administration of Compound X of the present application in mice, respectively, to study the pharmacokinetic behavior of Compound X of the present application in mice, and to evaluate its pharmacokinetic characteristics.
Test animals: healthy adult male ICR mice (weighing from 25 g to 40 g, 12 mice, free to drink and eat in the intravenous injection group, fasted overnight in the gavage group, and free to drink and eat 4 h after the administration of the medicament), supplied by Beijing Viton Lever Laboratory Animal Technology Co., Ltd.
Mode of administration and dosage: animals meeting the experimental requirements were selected and weighed and labeled before administration. ICR mice were administered by tail vein (2 mg/kg, 5% DMSO, pH 4.5 20% Captisol) and by gavage (10 mg/kg, 5% DMSO, pH 4.5 20% Captisol).
Blood sample collection: Prior to blood sample collection, mice were bound and approximately […] of blood was collected from the jugular vein of each administered mouse at predetermined blood collection time points (i.v. administration: Blood was collected at 9 time points: 0.083 h, 0.25 h, 0.5 h, 1 h, 2 h, 4 h, 6 h, 7.5 h, and 24 h, respectively, after administration; and gavage administration: Blood was collected at 9 time points: 0.083 h, 0.25 h, 0.5 h, 1 h, 2 h, 4 h, 6 h, 7.5 h, and 24 h, respectively, after administration). The blood was transferred to 1.5 mL tubes preloaded with K2EDTA, and the blood plasma was separated by centrifugation for 4 min (8,000 rpm, 4° C.), which was performed within 15 min after the collection. All samples were stored in a refrigerator at −20° C. until sample analysis. LC/MS/MS method was applied to determine the medicament concentration.

A2B receptor = A2B receptor (Homo sapiens (Human), UniProt P29275); assay: Inhibitory activity on A2B receptor, cAMP assay in CHO-K1/ADORA2B/Gα15 cells (Test Example 1); format: cell-based; settings: NECA 10 nM
Chain of A2B receptor (P29275 whole entry): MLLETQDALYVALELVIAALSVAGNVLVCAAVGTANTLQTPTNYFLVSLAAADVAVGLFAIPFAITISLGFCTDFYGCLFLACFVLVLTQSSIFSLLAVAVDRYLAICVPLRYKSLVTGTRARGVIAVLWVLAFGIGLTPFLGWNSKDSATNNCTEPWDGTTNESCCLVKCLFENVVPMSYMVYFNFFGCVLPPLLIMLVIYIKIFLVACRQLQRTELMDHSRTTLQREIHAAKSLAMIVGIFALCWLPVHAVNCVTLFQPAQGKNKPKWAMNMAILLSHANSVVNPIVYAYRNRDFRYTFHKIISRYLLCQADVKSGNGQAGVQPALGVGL
Experimental: (§1) CHO-K1/ADORA2A/Gα15 (GenScript, M00246) and CHO-K1/ADORA2B/Gα15 (GenScript, M00329) cells were cultured in Ham's F-12 (Gibco, 31765092) medium with medium conditions containing 10% FBS, 200 μg/mL Zeocin (bleomycin) and 100 μg/mL Hygromycin B (thaumatin B) or 10% FBS, 400 μg/mL G418 and 100 μg/mL Hygromycin B. Details of the culture conditions are described in the corresponding instructions.

A2A receptor = A2A receptor (Homo sapiens (Human), UniProt P29274); assay: Inhibitory activity on A2A receptor, cAMP assay in CHO-K1/ADORA2A/Gα15 cells (Test Example 1); format: cell-based; settings: NECA 50 nM
Chain of A2A receptor (P29274 whole entry): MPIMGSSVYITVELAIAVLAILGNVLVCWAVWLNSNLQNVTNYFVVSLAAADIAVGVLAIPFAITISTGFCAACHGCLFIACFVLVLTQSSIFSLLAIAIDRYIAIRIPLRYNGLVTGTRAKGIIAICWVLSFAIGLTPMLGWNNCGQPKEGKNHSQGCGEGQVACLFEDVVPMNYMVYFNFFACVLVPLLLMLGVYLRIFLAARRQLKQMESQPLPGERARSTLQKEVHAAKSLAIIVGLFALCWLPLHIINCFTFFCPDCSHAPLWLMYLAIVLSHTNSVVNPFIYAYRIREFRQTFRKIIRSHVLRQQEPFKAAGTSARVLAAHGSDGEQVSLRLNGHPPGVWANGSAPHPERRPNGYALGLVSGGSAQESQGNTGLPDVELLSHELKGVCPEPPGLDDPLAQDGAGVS
Experimental: as §1

[3] = Stability experiments of free alkali crystal form I, XRPD; format: physicochemical; settings: 40° C., 75% RH, lid open; 1 week, 2 weeks, 1 month, 2 months, 4 months
Source text: Samples were taken at 1 week, 2 weeks, 1 month, 2 months, and 4 months for XRPD test, respectively.

[4] = Dynamic Vapor Sorption (DVS); format: physicochemical
[5] = Crystal competition experiment, XRPD; format: physicochemical; settings: mixed forms I, IV, V, VI, VII shaken in different solvents for 24 h
Experimental: In order to detect the stablest crystal form of Compound X, crystalline competition experiments were carried out. 10 mg of free alkali crystal I, free alkali crystal IV, free alkali crystal form V, free alkali crystal form VI, and free alkali crystal form VII were weighed, respectively, and mixed thoroughly. 20 mg of the mixed crystal was weighed in a glass vial, to which 1 mL of solvent in Table 14 was added respectively, and the resultant was mixed and shaken at room temperature for 24 h, and centrifugated. The precipitate was taken, dried and then measured by XRPD.

[6] = Mixing and shaking in solvents, XRPD test; format: physicochemical
Source text: […] After centrifugation, the supernatant was discarded, and the solids were placed in an oven to dryness and subjected to the XRPD test.

[7] = Differential scanning calorimetry (DSC), crystal form stability; format: physicochemical; settings: may be transformed into free alkali crystal form I during warming up
Source text: As one of the embodiments, DSC plots in some embodiments of the present application were collected on a DISCOVERY DSC25 differential scanning calorimeter with the test parameters shown in Table 11.

[8] = intravenous (tail vein) 2 mg/kg, read-out: Area under the curve AUC0-t
[9] = intravenous (tail vein) 2 mg/kg
[10] = po, gavage 10 mg/kg, read-out: Area under the curve AUClast

AUC(0-t) [2, 8]: 1650 ng·h/mL
clearance [2, 9]: 19 mL/min/kg
Cmax ([2]; po, gavage 10 mg/kg): 5960 ng/mL
AUC(0-t) [2, 10]: 10300 ng·h/mL
Compound: Cc1c(C#N)cccc1-c1cc(-c2cn(Cc3cccc(C(C)(C)O)n3)nn2)nc(N)n1 [Compound D1, reference compound]
Relative tumor proliferation rate T/C (%) ([1]; 100 mg/kg oral): 75.8%
Tumor volume ([1]; 100 mg/kg oral): 902 mm^3

AUC(0-t) [2, 8]: 2250 ng·h/mL
clearance [2, 9]: 14.7 mL/min/kg
Cmax ([2]; po, gavage 10 mg/kg): 8730 ng/mL
AUC(0-t) [2, 10]: 10400 ng·h/mL
IC50 (A2B receptor): 0.003 mM
IC50 (A2A receptor): 0.001 mM
Compound: Cc1c(C#N)cccc1-c1nc(N)c(F)c(-c2cn(Cc3cccc(C(C)(C)O)n3)nn2)n1 [Compound X, 3-(4-amino-5-fluoro-6-(1-((6-(2-hydroxypropan-2-yl)pyridin-2-yl)methyl)-1H-1,2,3-triazol-4-yl)pyrimidin-2-yl)-2-methylbenzonitrile]
Relative tumor proliferation rate T/C (%) ([1]; 10 mg/kg oral): 75.5%
Tumor volume ([1]; 10 mg/kg oral): 899 mm^3
Relative tumor proliferation rate T/C (%) ([1]; 30 mg/kg oral): 34.0%
Tumor volume ([1]; 30 mg/kg oral): 405 mm^3
Relative tumor proliferation rate T/C (%) ([1]; 100 mg/kg oral): 24.0%
Tumor volume ([1]; 100 mg/kg oral): 286 mm^3

physical stability (XRPD) [3]: physically stable
hygroscopicity ([4]; DVS, 0% to 80% RH at 25° C.): almost no hygroscopicity
change in mass due to absorption ([4]; relative humidity from 0% to 80% RH at 25° C.): less than 0.2%
stablest crystal form determined by competition [5]: stable crystal form
Crystal form after mixing and shaking ([6]; 50% Ethanol, 50° C., 1 day): Crystal form I
Crystal form after mixing and shaking ([6]; 50% Ethanol, RT, 1 day): Crystal form I
Crystal form after mixing and shaking ([6]; 50% Ethanol, RT, 7 days): Crystal form I
Crystal form after mixing and shaking ([6]; Ethanol, 50° C., 1 day): Crystal form I
Crystal form after mixing and shaking ([6]; Ethanol, RT, 1 day): Crystal form I
Crystal form after mixing and shaking ([6]; Ethanol, RT, 7 days): Crystal form I
Crystal form after mixing and shaking ([6]; Ethyl acetate, 50° C., 1 day): Crystal form I
Crystal form after mixing and shaking ([6]; Ethyl acetate, RT, 1 day): Crystal form I
Crystal form after mixing and shaking ([6]; Ethyl acetate, RT, 7 days): Crystal form I
Crystal form after mixing and shaking ([6]; Isopropanol, 50° C., 1 day): Crystal form I
Crystal form after mixing and shaking ([6]; Isopropanol, RT, 1 day): Crystal form I
Crystal form after mixing and shaking ([6]; Isopropanol, RT, 7 days): Crystal form I
Crystal form after mixing and shaking ([6]; Methyl tert-butyl ether, 50° C., 1 day): Crystal form I
Crystal form after mixing and shaking ([6]; Methyl tert-butyl ether, RT, 1 day): Crystal form I
Crystal form after mixing and shaking ([6]; Methyl tert-butyl ether, RT, 7 days): Crystal form I
Crystal form after mixing and shaking ([6]; Water, 50° C., 1 day): Crystal form I
Crystal form after mixing and shaking ([6]; Water, RT, 1 day): Crystal form I
Crystal form after mixing and shaking ([6]; Water, RT, 7 days): Crystal form I
change of crystal form after mixing and shaking ([6]; any of the seven solvents shown): did not change
Crystal form after mixing and shaking ([6]; n-Heptane, 50° C., 1 day): Crystal form I
Crystal form after mixing and shaking ([6]; n-Heptane, RT, 1 day): Crystal form I
Crystal form after mixing and shaking ([6]; n-Heptane, RT, 7 days): Crystal form I
Compound: Cc1c(C#N)cccc1-c1nc(N)c(F)c(-c2cn(Cc3cccc(C(C)(C)O)n3)nn2)n1 [free alkali crystal form I, 3-(4-amino-5-fluoro-6-(1-((6-(2-hydroxypropan-2-yl)pyridin-2-yl)methyl)-1H-1,2,3-triazol-4-yl)pyrimidin-2-yl)-2-methylbenzonitrile]

crystal form stability from DSC plot [7]: sub-stable crystal form
Compound: Cc1c(C#N)cccc1-c1nc(N)c(F)c(-c2cn(Cc3cccc(C(C)(C)O)n3)nn2)n1 [free alkali crystal form IV, 3-(4-amino-5-fluoro-6-(1-((6-(2-hydroxypropan-2-yl)pyridin-2-yl)methyl)-1H-1,2,3-triazol-4-yl)pyrimidin-2-yl)-2-methylbenzonitrile]
